Experimental data from patent EP1614683B1, “Indazole compounds and pharmaceutical compositions for inhibiting protein kinases, and methods for their use” (priority 1999, dated 2001).
Where two headings read alike, the source gives them in different places.

Settings: mouse, in vivo

| SMILES | AUCleast (ip, 25 mg/kg, pH 2.3) [µg·h/mL] | T1/2 (ip, 25 mg/kg, pH 2.3) [h] | AUCleast (po, 50 mg/kg, pH 2.3) [µg·h/mL] | T1/2 (po, 50 mg/kg, pH 2.3) [h] | AUCleast (po, 25 mg/kg, pH 2.3) | T1/2 (po, 25 mg/kg, pH 2.3) [h] | further results |
| --- | --- | --- | --- | --- | --- | --- | --- |
| Cc1cccc(C(=O)Nc2cccc(Oc3ccc4c(/C=C/c5ccccc5)n[nH]c4c3)c2)c1 [5 (b)] | – | – | – | – | – | – | AUCleast (po, 10 mg/kg, pH 2.3): 0.061 µg·h/mL; T1/2 (po, 10 mg/kg, pH 2.3): 3.1 h |
| O=C(Nc1cccc(Cl)c1)c1ccccc1Sc1ccc2c(/C=C/c3ccccn3)n[nH]c2c1 [33 (d)] | 5.08 | 1.6 | 4.744 | 0.9 | – | – | Cmin (7 hr conc.) (po, 50 mg/kg, 7 h, pH 2.3): 8 ng/mL |
| O=C(NC1CC1)c1ccccc1Sc1ccc2c(/C=C/c3ccccn3)n[nH]c2c1 [33 (e)] | 14.323 | 1.0 | 13.29 | 0.7 | – | – | – |
| O=C(NCC(F)(F)F)c1ccccc1Sc1ccc2c(/C=C/c3ccccn3)n[nH]c2c1 [33 (f)] | 1.887 | 2.4 | 1.436 | 0.7 | – | – | Cmin (7 hr conc.) (ip, 25 mg/kg, 7 h, pH 2.3): 6 ng/mL; Cmin (7 hr conc.) (po, 50 mg/kg, 7 h, pH 2.3): 3 ng/mL |
| COc1cccc(CNC(=O)c2ccccc2Sc2ccc3c(/C=C/c4ccccn4)n[nH]c3c2)c1 [35 (aa)] | – | – | – | – | 4.036 µg·h/mL | 2.1 | – |
| CC(C)NC(=O)c1ccccc1Sc1ccc2c(/C=C/c3ccccn3)n[nH]c2c1 [35 (b)] | 2.84 | 0.8 | 4.048 | 0.8 | – | – | – |
| O=C(NC1CCC1)c1ccccc1Sc1ccc2c(/C=C/c3ccccn3)n[nH]c2c1 [35 (c)] | 9.408 | 3.2 | 4.744 | 4.9 | – | – | – |
| C#CCNC(=O)c1ccccc1Sc1ccc2c(/C=C/c3ccccn3)n[nH]c2c1 [35 (cc)] | 2.223 | 1.4 | 1.718 | 0.9 | – | – | Cmin (7 hr conc.) (ip, 25 mg/kg, 7 h, pH 2.3): 6 ng/mL; Cmin (7 hr conc.) (po, 50 mg/kg, 7 h, pH 2.3): 5 ng/mL |
| CCONC(=O)c1ccccc1Sc1ccc2c(/C=C/c3ccccn3)n[nH]c2c1 [35 (dd)] | > 23.046 | 4.1 | – | – | > 6.521 µg·h/mL | 1.4 | AUCleast (po, 25 mg/kg): 1.36 µg·h/mL; T1/2 (po, 25 mg/kg): 2.0 h |
| Cn1cccc1C(=O)NNC(=O)c1ccccc1Sc1ccc2c(/C=C/c3ccccn3)n[nH]c2c1 [35 (e)] | 2.409 | 1.8 | 1.503 | 0.9 | – | – | Cmin (7 hr conc.) (po, 50 mg/kg, 7 h, pH 2.3): 6 ng/mL |
| C=C(C)CNC(=O)c1ccccc1Sc1ccc2c(/C=C/c3ccccn3)n[nH]c2c1 [35 (ee)] | 0.546 | 1.5 | – | – | 0.157 µg·h/mL | 14.6 | Cmin (7 hr conc.) (ip, 25 mg/kg, 7 h, pH 2.3): 2 ng/mL; Cmin (7 hr conc.) (po, 25 mg/kg, 7 h, pH 2.3): 9 ng/mL |
| O=C(NCc1ccccc1F)c1ccccc1Sc1ccc2c(/C=C/c3ccccn3)n[nH]c2c1 [35 (f)] | 0.397 | 3.8 | 0.358 | 3.6 | – | – | – |
| O=C(NCc1cccc(F)c1)c1ccccc1Sc1ccc2c(/C=C/c3ccccn3)n[nH]c2c1 [35 (ff)] | > 6.301 | – | – | – | Blq | – | Cmin (7 hr conc.) (po, 25 mg/kg, pH 2.3): blq |
| COc1ccc(CNC(=O)c2ccccc2Sc2ccc3c(/C=C/c4ccccn4)n[nH]c3c2)cc1 [35 (g)] | – | – | – | – | 0.231 µg·h/mL | 16.1 | – |
| Cc1ccc(CNC(=O)c2ccccc2Sc2ccc3c(/C=C/c4ccccn4)n[nH]c3c2)o1 [35 (h)] | 0.059 | 1.5 | 0.026 | – | – | – | Cmin (7 hr conc.) (ip, 25 mg/kg, 7 h, pH 2.3): 1 ng/mL; Cmin (7 hr conc.) (po, 50 mg/kg, 7 h, pH 2.3): 2 ng/mL |
| O=C(NCCc1cccs1)c1ccccc1Sc1ccc2c(/C=C/c3ccccn3)n[nH]c2c1 [35 (hh)] | – | – | – | – | 0.292 µg·h/mL | 1.7 | Cmin (7 hr conc.) (po, 25 mg/kg, 7 h, pH 2.3): 5 ng/mL |
| C=CCONC(=O)c1ccccc1Sc1ccc2c(/C=C/c3ccccn3)n[nH]c2c1 [35 (j)] | 9.531 | 1.3 | 1.328 | 4.5 | – | – | Cmin (7 hr conc.) (po, 50 mg/kg, 7 h, pH 2.3): 5 ng/mL |
| CC(C)ONC(=O)c1ccccc1Sc1ccc2c(/C=C/c3ccccn3)n[nH]c2c1 [35 (k)] | 2.64 | 1.4 | 5.529 | 1.4 | – | – | – |

| SMILES | AUCleast (ip, 25 mg/kg, pH 2.3) [µg·h/mL] | T1/2 (ip, 25 mg/kg, pH 2.3) [h] | AUCleast (po, 50 mg/kg, pH 2.3) [µg·h/mL] | T1/2 (po, 50 mg/kg, pH 2.3) [h] | AUCleast (po, 25 mg/kg, pH 2.3) | T1/2 (po, 25 mg/kg, pH 2.3) [h] | further results |
| --- | --- | --- | --- | --- | --- | --- | --- |
| O=C(NNC(=O)c1ccccc1Sc1ccc2c(/C=C/c3ccccn3)n[nH]c2c1)c1cccs1 [35 (m)] | 0.226 | 4.0 | – | – | 0.01 µg·h/mL | – | Cmin (7 hr conc.) (po, 25 mg/kg, 420 min, pH 2.3): 0 ng/mL |
| O=C(NCc1ccncc1)c1ccccc1Sc1ccc2c(/C=C/c3ccccn3)n[nH]c2c1 [35 (p)] | – | – | – | – | 1.435 µg·h/mL | 1.3 | Cmin (7 hr conc.) (po, 25 mg/kg, 7 h, pH 2.3): 5 ng/mL |
| CONC(=O)c1ccccc1Sc1ccc2c(/C=C/c3ccccn3)n[nH]c2c1 [35 (r)] | – | – | – | – | 4.261 µg·h/mL | 1.3 | – |
| CCCONC(=O)c1ccccc1Sc1ccc2c(/C=C/c3ccccn3)n[nH]c2c1 [35 (t)] | – | – | – | – | 3.199 µg·h/mL | 1.1 | – |
| O=C(NCC1CC1)c1ccccc1Sc1ccc2c(/C=C/c3ccccn3)n[nH]c2c1 [35 (v)] | 4.865 | 0.9 | >2.946 | 1.0 | – | – | – |
| CCNC(=O)c1ccccc1Sc1ccc2c(/C=C/c3ccccn3)n[nH]c2c1 [35 (x)] | 0.951 | 3.2 | 3.516 | 0.9 | – | – | – |
| O=C(Nc1nccs1)c1ccccc1Sc1ccc2c(/C=C/c3ccccn3)n[nH]c2c1 [35 (y)] | 0.159 | 1.2 | 0.058 | 1.2 | – | – | Cmin (7 hr conc.) (ip, 25 mg/kg, 7 h, pH 2.3): 2 ng/mL; Cmin (7 hr conc.) (po, 50 mg/kg, 7 h, pH 2.3): 1 ng/mL |
| CCOCCNC(=O)c1ccccc1Sc1ccc2c(/C=C/c3ccccn3)n[nH]c2c1 [35 (z)] | 0.837 | 1.8 | 1.001 | 1.6 | – | – | – |
| Cn1ccnc1/C=N/NC(=O)c1ccccc1Sc1ccc2c(/C=C/c3ccccn3)n[nH]c2c1 [36 (a)] | – | – | – | – | 0.605 µg·h/mL | 1.5 | – |
| CC(C)ONC(=O)c1cccc(F)c1Sc1ccc2c(/C=C/c3ccccn3)n[nH]c2c1 [37 (c)] | – | – | – | – | 2.419 µg·h/mL | 1.2 | Cmin (7 hr conc.) (po, 25 mg/kg, 7 h, pH 2.3): 9 ng/mL |
| CNC(=O)c1ccccc1Nc1ccc2c(/C=C/c3ccccn3)n[nH]c2c1 [39 (a)] | – | – | – | – | > 14.848 µg·h/mL | 1.4 | – |
| C#CCNC(=O)c1ccccc1Nc1ccc2c(/C=C/c3ccccn3)n[nH]c2c1 [39 (b)] | – | – | – | – | > 30.972 µg·h/mL | 11.8 | – |
| O=C(Nc1cccc(C(=O)c2ccc3c(/C=C/c4ccccn4)n[nH]c3c2)c1)c1ccncc1 [41 (b)] | > 5.868 | 4.7 | 0.759 | 1.1 | – | – | Cmin (7 hr conc.) (po, 50 mg/kg, 7 h, pH 2.3): 6 ng/mL |
| CC(C)=CC(=O)Nc1cccc(C(=O)c2ccc3c(/C=C/c4ccccn4)n[nH]c3c2)c1 [41 (dd)] | – | – | – | – | 0.654 µg·h/mL | 0.8 | Cmin (7 hr conc.) (po, 25 mg/kg, 7 h, pH 2.3): 1 ng/mL |
| C=CCn1nc(C)cc1C(=O)Nc1cc(C(=O)c2ccc3c(/C=C/c4ccccn4)n[nH]c3c2)ccc1C [41 (ff)] | – | – | – | – | 9.176 µg·h/mL | 2.0 | – |
| Cc1cc(C(=O)Nc2cccc(C(=O)c3ccc4c(/C=C/c5ccccn5)n[nH]c4c3)c2)n[nH]1 [41 (g)] | 1.925 | 0.3 | 0.508 | 0.7 | – | – | Cmin (7 hr conc.) (ip, 25 mg/kg, 420 min, pH 2.3): 0 ng/mL; Cmin (7 hr conc.) (po, 50 mg/kg, 7 h, pH 2.3): 1 ng/mL |
| Cc1cnccc1C(=O)Nc1cccc(C(=O)c2ccc3c(/C=C/c4ccccn4)n[nH]c3c2)c1 [41 (j)] | – | – | – | – | 1.476 µg·h/mL | 1.3 | – |
| Cc1cc(C(=O)Nc2cc(C(=O)c3ccc4c(/C=C/c5ccccn5)n[nH]c4c3)ccc2C)n(C(C)C)n1 [41 (kk)] | – | – | – | – | 11.612 µg·h/mL | 2.0 | – |
